Literature values, collected in US10350179B2, “Combination comprising palmitoylethanolamide (PEA) and lycopene for use in the treatment of inflammatory diseases” (Raffaele MIGLIACCIO, priority 2015, dated 2019).

Conditions: dietary intake, background statement

Concentration in human plasma: 220 to 1060 nM
Structure (SMILES): CC(C)=CCC/C(C)=C/C=C/C(C)=C/C=C/C(C)=C/C=C/C=C(C)/C=C/C=C(C)/C=C/C=C(\C)CCC=C(C)C [Lycopene]
